Structures can show the parent of a compound that is named as a salt. Where two headings read alike, the source gives them in different places.
Experiments:
[1] = biological target: T1, rat AHR (Rattus norvegicus, UniProt P41738); experiment: Rat AHR agonist luciferase assay (6x XRE Nano-luc reporter in H-4-II-E cells); format: cell-based; settings: AHR activation, rat hepatoma H-4-II-E reporter cells, incubated 4 to 24 hours; read-out: H4IIE EC50
T1 construct: The reporter gene was introduced into a genome of rat hepatoma H-4-II-E cells via lentiviral infection; endogenous in cells; host or cells: H-4-II-E (rat hepatoma) with a lentivirally integrated 6x XRE Nano-luc reporter
T1 sequence (P41738 10-853): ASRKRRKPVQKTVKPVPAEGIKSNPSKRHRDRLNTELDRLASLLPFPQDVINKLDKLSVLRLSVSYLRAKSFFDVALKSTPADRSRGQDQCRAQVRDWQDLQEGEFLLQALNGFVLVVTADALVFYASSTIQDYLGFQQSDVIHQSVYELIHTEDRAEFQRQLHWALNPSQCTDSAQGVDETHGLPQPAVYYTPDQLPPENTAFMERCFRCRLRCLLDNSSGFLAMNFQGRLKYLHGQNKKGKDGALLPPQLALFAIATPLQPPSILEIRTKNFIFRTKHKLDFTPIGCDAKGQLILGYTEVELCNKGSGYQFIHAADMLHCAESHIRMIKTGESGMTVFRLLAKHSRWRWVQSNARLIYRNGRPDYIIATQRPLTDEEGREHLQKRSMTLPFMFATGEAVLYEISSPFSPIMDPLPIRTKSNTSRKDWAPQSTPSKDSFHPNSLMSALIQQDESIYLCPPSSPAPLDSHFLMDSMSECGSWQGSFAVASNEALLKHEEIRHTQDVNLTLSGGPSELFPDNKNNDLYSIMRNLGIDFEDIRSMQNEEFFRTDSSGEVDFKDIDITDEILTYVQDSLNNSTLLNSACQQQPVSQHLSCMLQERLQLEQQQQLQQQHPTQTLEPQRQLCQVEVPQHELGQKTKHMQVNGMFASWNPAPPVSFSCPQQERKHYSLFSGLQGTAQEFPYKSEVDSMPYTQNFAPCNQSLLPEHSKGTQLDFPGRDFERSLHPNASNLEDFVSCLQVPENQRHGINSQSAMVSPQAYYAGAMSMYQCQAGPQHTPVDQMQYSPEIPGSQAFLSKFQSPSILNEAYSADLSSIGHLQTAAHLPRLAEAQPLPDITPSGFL
Source text: A lentivirus containing the reporter gene was generated by co-transfecting the transfer plasmid with packaging plasmids into 293T cells using conventional transfection methods in the art, followed by purification. The reporter gene was introduced into a genome of rat hepatoma H-4-II-E cells via lentiviral infection, and cells stably expressing the reporter gene were selected with puromycin for the rat AHR agonist luciferase assay.

[2] = biological target: mouse AHR (Mus musculus, UniProt P30561); experiment: Mouse AHR agonist luciferase assay (6x XRE Nano-luc reporter in Hepa1-6 cells);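 note: stable Hepa1-6 reporter line, 4–24 h exposure, 11-point serial dilution, Nano-Glo luminescence as fold over medium-only baseline, EC50 from four-parameter fit of activation fold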
mouse AHR, sequence (P30561 10-805 limits assumed): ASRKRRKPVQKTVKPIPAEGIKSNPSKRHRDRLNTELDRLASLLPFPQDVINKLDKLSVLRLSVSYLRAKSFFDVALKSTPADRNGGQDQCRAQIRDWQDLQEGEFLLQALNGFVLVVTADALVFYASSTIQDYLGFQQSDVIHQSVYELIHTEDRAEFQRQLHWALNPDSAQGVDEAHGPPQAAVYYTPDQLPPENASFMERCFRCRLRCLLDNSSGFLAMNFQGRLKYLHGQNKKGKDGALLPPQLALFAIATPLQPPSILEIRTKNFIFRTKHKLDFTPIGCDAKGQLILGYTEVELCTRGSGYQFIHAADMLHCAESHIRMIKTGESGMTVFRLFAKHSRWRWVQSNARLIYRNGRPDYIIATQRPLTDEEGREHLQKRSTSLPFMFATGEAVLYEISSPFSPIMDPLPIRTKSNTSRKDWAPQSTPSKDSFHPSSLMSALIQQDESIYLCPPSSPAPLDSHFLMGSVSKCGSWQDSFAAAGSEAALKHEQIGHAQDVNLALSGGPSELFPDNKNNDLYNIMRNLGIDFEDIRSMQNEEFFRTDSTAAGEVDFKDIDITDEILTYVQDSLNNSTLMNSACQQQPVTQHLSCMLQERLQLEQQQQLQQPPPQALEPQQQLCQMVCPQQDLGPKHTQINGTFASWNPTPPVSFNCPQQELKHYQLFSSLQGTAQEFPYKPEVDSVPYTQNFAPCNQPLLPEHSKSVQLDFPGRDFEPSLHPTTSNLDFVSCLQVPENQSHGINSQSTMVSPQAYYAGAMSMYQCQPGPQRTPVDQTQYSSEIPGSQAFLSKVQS
mouse AHR, sequence (P53762 whole entry partner): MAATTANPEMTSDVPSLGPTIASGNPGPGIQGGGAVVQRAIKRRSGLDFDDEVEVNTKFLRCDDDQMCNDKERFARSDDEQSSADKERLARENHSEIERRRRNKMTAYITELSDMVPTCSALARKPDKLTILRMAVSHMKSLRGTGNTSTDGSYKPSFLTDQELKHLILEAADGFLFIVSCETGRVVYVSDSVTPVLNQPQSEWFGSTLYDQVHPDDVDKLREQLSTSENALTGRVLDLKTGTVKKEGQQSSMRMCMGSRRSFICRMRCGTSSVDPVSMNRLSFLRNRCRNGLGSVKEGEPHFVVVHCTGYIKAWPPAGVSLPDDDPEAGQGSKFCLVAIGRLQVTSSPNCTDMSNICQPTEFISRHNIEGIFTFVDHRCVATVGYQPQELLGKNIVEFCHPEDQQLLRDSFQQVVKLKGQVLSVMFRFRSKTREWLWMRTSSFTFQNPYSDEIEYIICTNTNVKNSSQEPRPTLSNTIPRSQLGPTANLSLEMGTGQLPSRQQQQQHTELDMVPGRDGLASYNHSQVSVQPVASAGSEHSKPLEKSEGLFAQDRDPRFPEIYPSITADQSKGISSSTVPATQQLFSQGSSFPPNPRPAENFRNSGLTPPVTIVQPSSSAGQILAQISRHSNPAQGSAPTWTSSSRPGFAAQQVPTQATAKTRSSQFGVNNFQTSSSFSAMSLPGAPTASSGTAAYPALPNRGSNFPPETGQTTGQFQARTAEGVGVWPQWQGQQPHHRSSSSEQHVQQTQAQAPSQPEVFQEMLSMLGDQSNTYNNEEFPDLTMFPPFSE
Method: The reporter gene plasmid was transfected into mouse hepatoma Hepa1-6 cells by a conventional liposome transfection method in the art, and stably expressing cells were selected by puromycin for the mouse AHR agonist luciferase assay.
On day one, the stably expressing reporter gene Hepa1-6 cell line was counted and seeded into a white opaque 96-well plate at a density of 1×10^4 cells per well −8×10^4 cells per well using 100 μL of phenol red-free Dulbecco's Modified Eagle Medium (DMEM) (DMEM without phenol red, 10% fetal bovine serum). The cells were cultured in an incubator maintained at 37° C. with 5% CO2 for 24 hours.
Test compounds were prepared as 10 mM stock solutions in DMSO and stored at 4° C. protected from light. Before treatment, the compound stock solutions, positive control compounds (e.g., dioxin, ITE, or kynurenine), and a negative control compound (DMSO) were subjected to preliminary dilution (determined based on pre-experiments) with complete medium without tryptophan and phenol red, followed by 3- to 20-fold serial dilutions to 11 concentration points to obtain 10× dilution solutions. When treating the cells, 10 μL of medium was first aspirated from the 96-well plate containing the seeded cells, and then 10 μL of the serially diluted 10× dilution solution was added. Each compound was tested in duplicate, and each duplicate experiment included a well with a concentration of 0 (i.e., containing only medium) to determine the baseline. The reporter cells were returned to the incubator and incubated for 4 to 24 hours after treatment.
After treatment, 100 μL/well of Nano-Glo Luciferase Assay Reagent was added to the 96-well plate, and the RLU of each well was measured. The RLU values for the wells with the concentration of 0 on the 96-well plates were averaged to calculate the baseline Ave RLU^Vehicle The activity of AHR induced by the test compounds at different concentrations was calculated according to Formula (1) based on the ratio of RLU^Test Cmpd from the experimental groups to the baseline Ave RLU^Vehicle, to determine the activation fold.
The activation fold and the corresponding compound concentration were fitted using GraphPad Prism 9 with [Agonist] vs. response—variable slope (four parameters) to determine the EC50 of the compound for AHR activation.

[3] = biological target: T2, human AHR (Homo sapiens, UniProt P35869); experiment: Human AHR agonist luciferase assay (CYP1A1 promoter Nano-luc reporter in HepG2 cells);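 note: stably transfected HepG2 clone, DRE-containing 1200 bp promoter region driving Nano-luc, treated 4 to 24 h with 11-point dilutions in tryptophan-free medium, medium-only wells as baseline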
T2 sequence (P35869 11-848): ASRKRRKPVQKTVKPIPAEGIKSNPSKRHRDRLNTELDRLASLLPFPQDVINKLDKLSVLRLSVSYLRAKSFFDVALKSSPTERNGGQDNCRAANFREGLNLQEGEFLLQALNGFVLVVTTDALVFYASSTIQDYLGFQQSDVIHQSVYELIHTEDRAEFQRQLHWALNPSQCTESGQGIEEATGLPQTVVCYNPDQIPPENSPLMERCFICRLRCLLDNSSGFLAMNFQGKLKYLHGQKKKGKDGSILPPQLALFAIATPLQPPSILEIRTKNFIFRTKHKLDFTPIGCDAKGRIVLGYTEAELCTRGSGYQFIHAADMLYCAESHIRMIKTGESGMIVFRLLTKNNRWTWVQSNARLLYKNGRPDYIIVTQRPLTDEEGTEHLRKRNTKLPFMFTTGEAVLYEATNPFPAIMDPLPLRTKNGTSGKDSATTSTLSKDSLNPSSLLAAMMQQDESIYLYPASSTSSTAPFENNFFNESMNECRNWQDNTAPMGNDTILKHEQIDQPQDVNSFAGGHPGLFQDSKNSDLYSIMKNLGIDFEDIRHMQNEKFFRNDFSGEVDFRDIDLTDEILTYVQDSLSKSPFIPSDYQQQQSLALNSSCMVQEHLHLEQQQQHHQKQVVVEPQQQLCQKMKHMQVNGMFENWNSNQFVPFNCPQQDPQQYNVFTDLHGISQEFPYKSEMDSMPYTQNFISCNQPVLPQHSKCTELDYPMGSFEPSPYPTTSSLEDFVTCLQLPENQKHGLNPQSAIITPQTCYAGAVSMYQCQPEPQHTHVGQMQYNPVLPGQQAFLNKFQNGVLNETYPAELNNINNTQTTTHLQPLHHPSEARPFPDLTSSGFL
Method: To detect AHR activation, a reporter gene plasmid was constructed by placing the gene sequence from −1200 bp to 0 bp upstream of CYP1A1 in front of a Nano-luc luciferase reporter gene according to conventional construction methods of reporter gene plasmids in the art. The reporter gene plasmid was transfected into human hepatoma HepG2 cells by a conventional liposome transfection method in the art, and stably expressing cells were selected by puromycin. The selected cells were diluted to a concentration of 5 cells/mL and seeded into a 96-well plate at 100 μL/well, and single clones were obtained after growth. A single clone with normal morphology, normal growth, and the highest induction signal was selected for the human AHR agonist luciferase assay.
On day one, the HepG2 monoclonal cell line stably expressing reporter gene was counted and seeded into a white opaque 96-well plate at a density of 1×10^4 cells per well −8×10^4 cells per well using 100 μL of complete medium without tryptophan and phenol red (minimal essential medium (MEM) without tryptophan and phenol red, 10% (v/v) fetal bovine serum, 1× non-essential amino acids, 1× sodium pyruvate, and 1× GlutaMax). The cells were cultured in an incubator maintained at 37° C. with 5% (v/v) CO2 for 24 hours.
Test compounds were prepared as 10 mmol/L stock solutions in dimethyl sulfoxide (DMSO) and stored at 4° C. protected from light. Before treatment, the compound stock solutions, positive control compounds (e.g., dioxin, 2-(1H-indole-3-carbonyl)thiazole-4-carboxylic acid methyl ester (ITE), or kynurenine), and a negative control compound (DMSO) were subjected to preliminary dilution (determined based on pre-experiments) with the complete medium without tryptophan and phenol red, followed by 3- to 20-fold serial dilutions to 11 concentration points to obtain 2× dilution solutions. When treating the cells, 50 μL of medium was first aspirated from the 96-well plate containing the seeded cells, and then 50 μL of the serially diluted 2× dilution solution was added. Each compound was tested in duplicate, and each duplicate experiment included a well with a concentration of 0 (i.e., containing only the medium) to determine the baseline. The reporter cells were returned to the incubator and incubated for 4 to 24 hours after treatment.
After treatment, 100 μL/well of Nano-Glo Luciferase Assay Reagent was added to the 96-well plate, and the relative light unit (RLU) of each well was measured. The RLU values for the wells with the concentration of 0 on the 96-well plates were averaged to calculate the baseline Ave RLU^Vehicle. The activity of AHR induced by the test compounds at different concentrations was calculated according to Formula (1) based on the ratio of RLU^Test Cmpd from the experimental groups to the baseline Ave RLU^Vehicle, to determine the activation fold.
The activation fold and the corresponding compound concentration were fitted using GraphPad Prism 9 with [Agonist] vs. response—variable slope (four parameters) to calculate the EC50 of the compound for AHR activation.

[4] = read-out: HepG2 EC50, AHR activation, human hepatoma HepG2 reporter cells, incubated 4 to 24 hours

SMILES | EC50 [1] | EC50 [2] | EC50 [3] | EC50 ([2]; read-out: Hepa 1-6 EC50, AHR activation, mouse hepatoma Hepa1-6 reporter cells, incubated 4 to 24 hours) | EC50 [3, 4]
O=C(c1nc(C2CCOC2=O)cs1)c1c[nH]c2ccccc12 (single isomer, unassigned) [Compound 1-isomer-A] | ≤ 10 nM | < 100 nM | < 500 nM |  | 
O=C(c1nc(C2CCOC2=O)cs1)c1c[nH]c2ccccc12 (single isomer, unassigned) [Compound 1-isomer-B] | ≤ 10 nM |  |  | < 100 nM | 
O=C(c1nc(C2CCOC2=O)cs1)c1c[nH]c2ccccc12 (centres unmarked) [Compound 1, 3-[2-(1H-indole-3-carbonyl)-1,3-thiazol-4-yl]tetrahydrofuran-2-one] | ≤ 10 nM | < 100 nM | < 500 nM |  | 
O=C(c1nc(C2CCOC2=O)cs1)c1c[nH]c2cc(F)ccc12 (centres unmarked) [Compound 1-2] | ≤ 10 nM | < 100 nM | < 500 nM |  | 
COc1ccc2c(C(=O)c3nc(C4CCOC4=O)cs3)c[nH]c2c1 (centres unmarked) [Compound 1-3] | ≤ 10 nM | < 100 nM | < 500 nM |  | 
O=C(c1nc(C2CCOC2=O)cs1)c1c[nH]c2ccc(F)cc12 (centres unmarked) [Compound 1-4] | ≤ 10 nM | < 100 nM | < 500 nM |  | 
COc1ccc2[nH]cc(C(=O)c3nc(C4CCOC4=O)cs3)c2c1 (centres unmarked) [Compound 1-5] | ≤ 10 nM | < 100 nM | < 500 nM |  | 
O=C(c1nc(C2CCOC2=O)cs1)c1c[nH]c2cc3c(cc12)OCO3 (centres unmarked) [Compound 1-6] | ≤ 10 nM | < 100 nM | < 500 nM |  | 
O=C(c1nc(C2CCOC2=O)cs1)c1c[nH]c2cc(Cl)ccc12 (centres unmarked) [Compound 1-7] |  |  | < 500 nM |  | 
Cc1ccc2c(C(=O)c3nc(C4CCOC4=O)cs3)c[nH]c2c1 (centres unmarked) [Compound 1-8] |  |  | < 500 nM |  | 
N#Cc1ccc2c(C(=O)c3nc(C4CCOC4=O)cs3)c[nH]c2c1 (centres unmarked) [Compound 1-9] |  |  | < 500 nM |  | 
O=C(c1nc(C2(O)CCOC2=O)cs1)c1c[nH]c2ccc(F)cc12 (centres unmarked) [Compound 2-4] |  | < 100 nM | < 500 nM |  | 
COc1ccc2[nH]cc(C(=O)c3nc(C4(O)CCOC4=O)cs3)c2c1 (centres unmarked) [Compound 2-5] |  | < 100 nM | < 500 nM |  | 
O=C(c1nc(C2(F)CCOC2=O)cs1)c1c[nH]c2ccccc12 (centres unmarked) [Compound 3] |  | < 100 nM | < 500 nM |  | 
O=C1OCC=C1c1csc(C(=O)c2c[nH]c3ccccc23)n1 [Compound 5] |  | < 100 nM | < 500 nM |  | 
O=C1OCC(O)=C1c1csc(C(=O)c2c[nH]c3ccccc23)n1 [Compound 6] |  |  | 500 to 2000 nM |  | 
CN1CCC(c2csc(C(=O)c3c[nH]c4ccccc34)n2)C1=O (centres unmarked) [Compound 7] | 2000 to 100000 nM |  | < 500 nM |  | 
C[C@@H]1C[C@H](c2csc(C(=O)c3c[nH]c4ccccc34)n2)C(=O)O1 [Compound 8-cis-1] |  |  |  |  | < 500 nM
C[C@H]1C[C@@H](c2csc(C(=O)c3c[nH]c4ccccc34)n2)C(=O)O1 [Compound 8-cis-2] |  |  |  |  | < 500 nM
C[C@@H]1C[C@@H](c2csc(C(=O)c3c[nH]c4ccccc34)n2)C(=O)O1 [Compound 8-trans-1] |  |  |  |  | < 500 nM
C[C@H]1C[C@H](c2csc(C(=O)c3c[nH]c4ccccc34)n2)C(=O)O1 [Compound 8-trans-2] |  |  |  |  | < 500 nM
CC(C)[C@H](N)C(=O)n1cc(C(=O)c2nc(C3CCOC3=O)cs2)c2ccccc21 (stereo partly drawn) [Compound 9, 3-[2-({1-[(2S)-2-amino-3-methylbutanoyl]indol-3-yl}carbonyl)-1,3-thiazol-4-yl]tetrahydrofuran-2-one hydrochloride] |  | 100 to 2000 nM | 500 to 2000 nM |  | 
O=C(c1nc(C2CCOC2=O)cs1)c1cn(CO)c2ccccc12 (centres unmarked) [Compound 10, 3-{2-[1-(hydroxymethyl)indole-3-carbonyl]thiazol-4-yl}tetrahydrofuran-2-one] |  | 100 to 2000 nM | 500 to 2000 nM |  | 
O=C(c1nc(C2CCOC2=O)cs1)c1cn(P(=O)(O)O)c2ccccc12 (centres unmarked) [Compound 11] |  | 100 to 2000 nM | 500 to 2000 nM |  | 
O=C(c1nc(C2CCOC2=O)cs1)c1cn(COP(=O)(O)O)c2ccccc12 (centres unmarked) [Compound 12, {3-[4-(2-oxotetrahydrofuran-3-yl)thiazole-2-carbonyl]-1H-indol-1-yl}methylphosphoric acid] |  | 100 to 2000 nM | 500 to 2000 nM |  | 
CC(C)[C@H](N)C(=O)OCn1cc(C(=O)c2nc(C3CCOC3=O)cs2)c2ccccc21 (some centres unmarked) [Compound 13, hydrochloride] |  | 100 to 2000 nM | 500 to 2000 nM |  | 
COCCOCCOCCOCC(=O)OCn1cc(C(=O)c2nc(C3CCOC3=O)cs2)c2ccccc21 (centres unmarked) [Compound 14, 3,6,9,12-tetraoxatridecanoic acid {3-[4-(2-oxotetrahydrofuran-3-yl)thiazole-2-carbonyl]-1H-indol-1-yl}methyl ester] |  | 100 to 2000 nM | 500 to 2000 nM |  | 
COCCOCCOCCOCC(=O)n1cc(C(=O)c2nc(C3CCOC3=O)cs2)c2ccccc21 (centres unmarked) [Compound 15, 3-{2-[1-(3,6,9,12-tetraoxatridecanoyl)-1H-indole-3-carbonyl]thiazol-4-yl}dihydrofuran-2(3H)-one] |  | 100 to 2000 nM | 500 to 2000 nM |  | 

Second part, led by results:

EC50 [1] | EC50 [2] | EC50 [3] | EC50 ([2]; read-out: Hepa 1-6 EC50, AHR activation, mouse hepatoma Hepa1-6 reporter cells, incubated 4 to 24 hours) | SMILES | EC50 [3, 4]
 | < 100 nM | < 500 nM |  | O=C(c1nc(C2(F)CCOC2=O)cs1)c1c[nH]c2cc(F)ccc12 (centres unmarked) [Compound 3-2] | 
 | < 100 nM | < 500 nM |  | COc1ccc2c(C(=O)c3nc(C4(F)CCOC4=O)cs3)c[nH]c2c1 (centres unmarked) [Compound 3-3] | 
 | 100 to 2000 nM | < 500 nM |  | O=C(c1nc(C2(F)CCOC2=O)cs1)c1c[nH]c2ccc(F)cc12 (centres unmarked) [Compound 3-4] | 
 |  | 500 to 2000 nM |  | COc1ccc2[nH]cc(C(=O)c3nc(C4(F)CCOC4=O)cs3)c2c1 (centres unmarked) [Compound 3-5] | 
 |  | < 500 nM |  | COc1ccc2c(C(=O)c3nc(C4(Cl)CCOC4=O)cs3)c[nH]c2c1 (centres unmarked) [Compound 4-3] | 
 |  | < 500 nM |  | O=C(c1nc(C2(Cl)CCOC2=O)cs1)c1c[nH]c2ccc(F)cc12 (centres unmarked) [Compound 4-4] | 
2000 to 100000 nM |  | < 500 nM |  | CN1CCC(c2csc(C(=O)c3c[nH]c4cc(F)ccc34)n2)C1=O (centres unmarked) [Compound 7-2] | 
2000 to 100000 nM |  | < 500 nM |  | COc1ccc2c(C(=O)c3nc(C4CCN(C)C4=O)cs3)c[nH]c2c1 (centres unmarked) [Compound 7-3] | 
2000 to 100000 nM |  | < 500 nM |  | CN1CCC(c2csc(C(=O)c3c[nH]c4ccc(F)cc34)n2)C1=O (centres unmarked) [Compound 7-4] | 
 | < 100 nM | < 500 nM |  | CC1CC(c2csc(C(=O)c3c[nH]c4cc(F)ccc34)n2)C(=O)O1 (centres unmarked) [Compound 8-2] | 
 | < 100 nM | < 500 nM |  | COc1ccc2c(C(=O)c3nc(C4CC(C)OC4=O)cs3)c[nH]c2c1 (centres unmarked) [Compound 8-3] | 
 | < 100 nM | < 500 nM |  | CC1CC(c2csc(C(=O)c3c[nH]c4ccc(F)cc34)n2)C(=O)O1 (centres unmarked) [Compound 8-4] | 
 | < 100 nM | < 500 nM |  | COc1ccc2[nH]cc(C(=O)c3nc(C4CC(C)OC4=O)cs3)c2c1 (centres unmarked) [Compound 8-5] | 
 | < 100 nM | < 500 nM |  | CC1CC(c2csc(C(=O)c3c[nH]c4cc5c(cc34)OCO5)n2)C(=O)O1 (centres unmarked) [Compound 8-6] | 
